We go through 25 compounds from patent US10377770B2 (Novartis AG, priority 2015, dated 2019).

pIC50: −log10 of the molar value.

This assay addresses C-Raf FL (full length CRAF with Y340E and Y341E activating mutations, co-expressed with h14-3-3 zeta) (Homo sapiens (Human), UniProt P04049, Y340E/Y341E). In words: In vitro Raf activity determination, AlphaScreen p-MEK readout, c-Raf (C-Raf FL). The settings on record: c-Raf approximately 4 nM, ATP 1 μM, pre-incubation 60 minutes, reaction 1 hour. Type of assay: biochemical. The essentials:
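Phosphorylation of kinase-dead biotinylated MEK1 (~10 nM) by C-Raf FL (~4 nM) read by AlphaScreen luminescence with anti-phospho-MEK1/2 after EDTA stop. ATP was 1 μM, with a 1 h reaction at room temperature. Compounds were pre-incubated with enzyme and substrate for 60 min in Tris/MgCl2 buffer, pH 7.5.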

The pIC50 is the negative decadic logarithm of the IC50, by convention in mol/L.

Sequence of C-Raf FL (full length CRAF with Y340E and Y341E activating mutations, co-expressed with h14-3-3 zeta) (P04049 whole entry Y340E/Y341E): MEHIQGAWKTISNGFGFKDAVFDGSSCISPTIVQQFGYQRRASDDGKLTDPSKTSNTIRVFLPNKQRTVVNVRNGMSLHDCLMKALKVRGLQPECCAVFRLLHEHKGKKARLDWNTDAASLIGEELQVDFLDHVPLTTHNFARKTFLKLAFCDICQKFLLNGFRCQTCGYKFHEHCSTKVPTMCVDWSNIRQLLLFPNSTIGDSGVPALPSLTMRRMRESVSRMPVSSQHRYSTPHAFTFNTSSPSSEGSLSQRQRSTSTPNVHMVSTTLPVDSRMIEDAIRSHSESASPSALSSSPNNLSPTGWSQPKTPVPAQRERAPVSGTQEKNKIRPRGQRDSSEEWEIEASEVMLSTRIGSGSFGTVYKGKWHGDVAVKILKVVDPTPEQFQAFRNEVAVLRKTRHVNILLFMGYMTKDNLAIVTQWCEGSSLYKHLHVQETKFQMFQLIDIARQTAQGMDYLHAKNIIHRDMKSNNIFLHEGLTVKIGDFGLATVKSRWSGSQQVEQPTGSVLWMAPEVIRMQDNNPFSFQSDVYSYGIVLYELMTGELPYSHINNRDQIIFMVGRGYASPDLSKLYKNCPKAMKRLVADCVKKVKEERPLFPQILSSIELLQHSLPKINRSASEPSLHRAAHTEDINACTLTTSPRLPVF
Sequence of C-Raf FL (full length CRAF with Y340E and Y341E activating mutations, co-expressed with h14-3-3 zeta) (P63104 whole entry partner): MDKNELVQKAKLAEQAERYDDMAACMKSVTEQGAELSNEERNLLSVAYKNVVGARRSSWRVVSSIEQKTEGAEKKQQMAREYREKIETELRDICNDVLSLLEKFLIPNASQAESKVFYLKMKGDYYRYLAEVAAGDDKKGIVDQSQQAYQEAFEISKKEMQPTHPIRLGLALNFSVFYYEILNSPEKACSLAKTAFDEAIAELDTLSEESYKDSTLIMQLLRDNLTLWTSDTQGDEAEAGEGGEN

Compound `Cc1ncc(NC(=O)c2cccc(C(F)(F)F)c2)cc1-c1cc(F)c2c(c1)N1CCOC[C@H]1[C@](F)(CO)C2` [Example 421, N-(5-((4aS,5S)-5,7-difluoro-5-(hydroxymethyl)-1,2,4,4a,5,6-hexahydro-[1,4]oxazino[4,3-a]quinolin-9-yl)-6-methylpyridin-3-yl)-3-(trifluoromethyl)benzamide] gave a pIC50 of 9.10.

In turn, `CCN1C[C@H]2COCCN2c2cc(-c3cc(NC(=O)c4ccnc(C(F)(F)F)c4)ccc3C)cnc2C1=O` [Example 496, (S)-N-(3-(6-ethyl-7-oxo-1,2,4a,5,6,7-hexahydro-4H-[1,4]oxazino[4,3-a]pyrido[2,3-f][1,4]diazepin-10-yl)-4-methylphenyl)-2-(trifluoromethyl)iso-nicotinamide] had a pIC50 of 9.15.

`CCNC(=O)C1Cc2ccc(-c3cc(NC(=O)c4ccnc(C(C)(F)F)c4)ccc3C)cc2N2CCOCC12` (racemic) [Example 74, (rac)-9-(5-(2-(1,1-difluoroethyl)isonicotinamido)-2-methylphenyl)-N-ethyl-1,2,4,4a,5,6-hexahydro-[1,4]oxazino[4,3-a]quinoline-5-carboxamide] had a pIC50 of 9.55.

Consider `Cc1ncc(NC(=O)c2cccc(C(F)(F)F)c2)cc1-c1cnc2c(c1)N1CCOC[C@H]1C[C@@H]2O` (racemic) [Example 38, (rac)-(cis)-N-(5-(6-hydroxy-1,2,4,4a,5,6-hexahydro-[1,4]oxazino[4,3-a][1,5]naphthyridin-9-yl)-6-methylpyridin-3-yl)-3-(trifluoro-methyl)benzamide], for which the pIC50 is 10.52.

The compound `Cc1ccc(NC(=O)c2cncc(C(F)(F)F)c2)cc1-c1ccc2c(c1)N1CCOC[C@H]1[C@](F)(CO)C2` [Example 393, N-(3-((4aS,5S)-5-fluoro-5-(hydroxymethyl)-1,2,4,4a,5,6-hexahydro-[1,4]oxazino[4,3-a]quinolin-9-yl)-4-methylphenyl)-5-(trifluoromethyl)nicotinamide] gave a pIC50 of 10.00. Against the preceding compound, the pIC50 is 0.52 log units lower.

`Cc1ncc(NC(=O)c2cccc(C(F)(F)F)c2)cc1-c1cc2c(cc1F)C[C@@](F)(CO)[C@@H]1COCCN21` [Example 484, N-(5-((4aS,5S)-5,8-difluoro-5-(hydroxymethyl)-1,2,4,4a,5,6-hexahydro-[1,4]oxazino[4,3-a]quinolin-9-yl)-6-methylpyridin-3-yl)-3-(trifluoromethyl) benzamide] showed a pIC50 of 8.39.

Turning to `Cc1ccc(NC(=O)c2ccnc(C(C)(F)F)c2)cc1-c1ccc2c(c1)N1CCOC[C@H]1[C@](C)(N)C2` (racemic) [Example 92, (rac)-(syn)-N-(3-(5-amino-5-methyl-1,2,4,4a,5,6-hexahydro-[1,4]oxazino[4,3-a]quinolin-9-yl)-4-methylphenyl)-2-(1,1-difluoroethyl)isonicotinamide], the pIC50 is 9.21.

`Cc1ccc(NC(=O)c2ccnc(C(C)(F)F)c2)cc1-c1cnc2c(c1)C1C3COCC3C1C(=O)N2CCO` (stereo not shown) [Example 279, 2-(1,1-difluoroethyl)-N-(3-(5-(2-hydroxyethyl)-6-oxo-5,6,6a,6b,7,9,9a,9b-octahydrofuro[3′,4′: 3,4]cyclobuta[1,2-c][1,8]naphthyridin-2-yl)-4-methylphenyl) isonicotinamide] gave a pIC50 of 9.40.

`Cc1ncc(NC(=O)c2cccc(C(F)(F)F)c2)cc1-c1cnc2c(c1)N1CCOCCC1CC(=O)N2CCO` (stereo not shown) [Example 319, N-(5-(8-(2-hydroxyethyl)-7-oxo-1,2,4,5,5a,6,7,8-octahydropyrido[3′, 2′:2,3][1,4]diazepino [1,7-d][1,4]oxazepin-11-yl)-6-methylpyridin-3-yl)-3-(trifluoromethyl) benzamide] showed a pIC50 of 8.66.

Consider `Cc1ccc(NC(=O)c2ccnc(C(C)(F)F)c2)cc1-c1cnc2c(c1)N1CCOC[C@H]1C(F)(F)[C@H]2O` [Example 164, N-(3-((4aS,6S)-5,5-difluoro-6-hydroxy-1,2,4,4a,5,6-hexahydro-[1,4]oxazino[4,3-a][1,5]naphthyridin-9-yl)-4-methylphenyl)-2-(1,1-difluoroethyl)isonicotinamide], for which the pIC50 is 9.37.

The compound `CCN1C(=O)C[C@@H]2COCCN2c2cc(-c3cc(NC(=O)c4ccnc(C(F)(F)F)c4F)ccc3C)cnc21` [Example 327, (R)-N-(3-(7-ethyl-6-oxo-2,4,4a,5,6,7-hexahydro-1H-[1,4]oxazino[4,3-d]pyrido[2,3-b][1,4]diazepin-10-yl)-4-methylphenyl)-3-fluoro-2-(trifluoromethyl) isonicotinamide] had a pIC50 of 9.52.

As to `Cc1ccc(NC(=O)c2cnnc(C(F)(F)F)c2)cc1-c1cnc2c(c1)N1CCOC[C@@H]1CC(=O)N2CCO` [Example 324, (S)-N-(3-(7-(2-hydroxyethyl)-6-oxo-2,4,4a,5,6,7-hexahydro-1H-[1,4]oxazino[4,3-d]pyrido[2,3-b][1,4]diazepin-10-yl)-4-methylphenyl)-6-(trifluoromethyl) pyridazine-4-carboxamide], the pIC50 is 9.10.

Turning to `Cc1ccc(NC(=O)c2ccnc(C(C)(C)C#N)c2)cc1-c1ccc2c(c1)N1CCOCC1CC2O` (racemic) [Example 8, (rac)-2-(2-cyanopropan-2-yl)-N-(3-(6-hydroxy-1,2,4,4a,5,6-hexahydro-[1,4]oxazino[4,3-a]quinolin-9-yl)-4-methylphenyl)isonicotinamide], the pIC50 is 9.72.

`Cc1ncc(NC(=O)c2ccnc(C(C)(F)F)c2)cc1-c1ccc2c(c1)N1CCOC[C@@H]1[C@](C)(C#N)C2` [Example 376, N-(5-((4aS,5R)-5-cyano-5-methyl-1,2,4,4a,5,6-hexahydro-[1,4]oxazino[4,3-a]quinolin-9-yl)-6-methylpyridin-3-yl)-2-(1,1-difluoroethyl)isonicotinamide] showed a pIC50 of 9.30.

`Cc1ccc(NC(=O)c2ccnc(C(C)(F)F)c2)cc1-c1cc(F)c2c(c1)N1CCOC[C@@H]1[C@](F)(CO)C2` [Example 436, N-(3-((4aR,5S)-5,7-difluoro-5-(hydroxymethyl)-1,2,4,4a,5,6-hexahydro-[1,4]oxazino[4,3-a]quinolin-9-yl)-4-methylphenyl)-2-(1,1-difluoroethyl) isonicotinamide] gave a pIC50 of 9.52.

In the case of `CO[C@@H]1C[C@@H]2COCCN2c2cc(-c3cc(NC(=O)c4cccc(C(F)(F)F)c4)cnc3C)ccc21` (racemic) [Example 32, (rac)-(trans)-N-(5-(6-methoxy-1,2,4,4a,5,6-hexahydro-[1,4]oxazino[4,3-a]quinolin-9-yl)-6-methylpyridin-3-yl)-3-(trifluoromethyl)benzamide], the negative logarithm of the IC50 (pIC50) was 10.64.

Turning to `Cc1ccc(NC(=O)c2ccnc(C(F)(F)F)c2)cc1-c1cnc2c(c1)N1CCOC[C@@H]1C(F)(F)[C@@H]2O` [Example 168, N-(3-((4aR,6R)-5,5-difluoro-6-hydroxy-1,2,4,4a,5,6-hexahydro-[1,4]oxazino[4,3-a][1,5]naphthyridin-9-yl)-4-methylphenyl)-2-(trifluoromethyl)isonicotinamide], the pIC50 was 9.11. This pIC50 is 1.53 log units lower than that of the compound before.

In the case of `Cc1ncc(NC(=O)c2ccnc(C(C)(F)F)c2)cc1-c1ccc2c(c1)N1CCOC[C@H]1[C@H](C#N)C2` (racemic) [Example 91, (rac)-N-(5-(5-cyano-1,2,4,4a,5,6-hexahydro-[1,4]oxazino[4,3-a]quinolin-9-yl)-6-methylpyridin-3-yl)-2-(1,1-difluoroethyl)isonicotinamide], the pIC50 is 10.12.

In turn, `Cc1ccc(NC(=O)c2ccnc(C(F)(F)F)c2)cc1-c1cnc2c(c1)N1CCOC[C@H]1C[C@H]2C` [Example 522, N-(4-methyl-3-((4aR,6R)-6-methyl-1,2,4,4a,5,6-hexahydro-[1,4]oxazino[4,3-a][1,5]naph-thyridin-9-yl)phenyl)-2-(trifluoromethyl)iso-nicotinamide] showed a pIC50 of 10.00.

As for `Cc1ccc(NC(=O)c2ccnc(C(C)(F)F)c2)cc1-c1ccc2c(c1)N1CCOC[C@H]1[C@@](C)(C#N)C2` (racemic) [Example 88, (rac)-N-(3-(5-cyano-5-methyl-1,2,4,4a,5,6-hexahydro-[1,4]oxazino[4,3-a]quinolin-9-yl)-4-methylphenyl)-2-(1,1-difluoroethyl)isonictinamide], the pIC50 is 10.49.

In turn, `Cc1ccc(NC(=O)c2ccnc(C(C)(F)F)c2)cc1-c1ccc2c(c1)N1CCOC[C@H]1C(CO)(CO)C2` (single isomer, unassigned) [Example 52] showed a pIC50 of 9.80.

`CCN1C(=O)[C@@H]2COCC[C@H]2c2cc(-c3cc(NC(=O)c4cncc(C(F)(F)F)c4)ccc3C)cnc21` [Example 303, N-(3-((4aS,10bR)-6-ethyl-5-oxo-2,4,4a,5,6,10b-hexahydro-1H-pyrano[3,4-c][1,8]naphthyridin-9-yl)-4-methylphenyl)-5-(trifluoromethyl) nicotinamide] showed a pIC50 of 10.00. Compared with the last compound, the pIC50 is 0.20 log units higher.

Consider `Cc1ccc(NC(=O)c2ccnc(C(F)(F)F)c2)cc1-c1cnc2c(c1)N1CCOC[C@H]1C[C@@]2(O)C(F)(F)F` (racemic) [Example 170, rac-cis-N-(3-(6-hydroxy-6-(trifluoromethyl)-1,2,4,4a,5,6-hexahydro-[1,4]oxazino[4,3-a][1,5]naphthyridin-9-yl)-4-methylphenyl)-2-(trifluoromethyl)isonicotinamide], for which the pIC50 was 10.60.

`Cc1ccc(NC(=O)c2ccnc(C(F)(F)F)c2)cc1-c1ccc2c(c1)N1CCOCC1C(CS(C)(=O)=O)C2` (racemic) [Example 363, (rac)-N-(4-methyl-3-(5-((methylsulfonyl)methyl)-1,2,4,4a,5,6-hexahydro-[1,4]oxazino[4,3-a]quinolin-9-yl)phenyl)-2-(trifluoromethyl)isonicotinamide] had a pIC50 of 10.00.

Turning to `Cc1ccc(NC(=O)c2ccnc(C(C)(F)F)c2)cc1-c1cnc2c(c1)N1CCOC[C@@H]1[C@@H](C(C)(C)O)C2` [Example 456, 2-(1,1-difluoroethyl)-N-(3-((4aS,5S)-5-(2-hydroxypropan-2-yl)-1,2,4,4a,5,6-hexahydro-[1,4]oxazino[4,3-a][1,5]naphthyridin-9-yl)-4-methylphenyl) isonicotinamide], the pIC50 was 9.15. Against the preceding compound, the pIC50 is 0.85 log units lower.
